From paper PMC11881906, “Development of xanthone derivatives as effective broad-spectrum antimicrobials: Disrupting cell wall and inhibiting DNA synthesis” (Science Advances, 2025) come the findings set out here.

One data set deals with MRSA N315. The experiment in a line: MIC, broth microdilution. The class given is cell-based. Conditions: Staphylococcus aureus, 24-hour incubation, MHB, read-out: MIC90 MRSA N315. Here is the method:
(§1) MIC was determined using the broth microdilution method in accordance with Clinical and Laboratory Standards Institute guidelines. All compounds were dissolved in dimethyl sulfoxide (DMSO; final DMSO concentration of less than 0.5%) and sterile double-distilled water and then diluted with Mueller-Hinton broth (MHB). Each compound’s stock solution was serially twofold diluted, resulting in concentrations ranging from 0.39 to 100 μg/ml, and thereafter added to sterile 96-well plates. All bacterial cell suspensions were adjusted in MHB to attain a starting inoculum of 1 × 10^6 cells/ml. A total of 100 μl volume of the bacterial suspension was then added to each well. Following a 24-hour incubation at 37°C, the optical density at 600 nm (OD600) was confirmed by measuring absorbance at 600 nm with a BioTek microplate reader. […] All measurements were repeated three times with duplicates each time.
For orientation: In broth dilution the organism is exposed to a series of concentrations in liquid medium.

The subject of another data set is MRSA NCTC 10442. The data set is described as follows: MIC, broth microdilution. The class given is cell-based. As to conditions: Staphylococcus aureus; 24-hour incubation, MHB; read-out: MIC90 MRSA NCTC 10442. Here is the method:
as §1

A further data set relates to S. aureus ATCC 29213. The data set is described as follows: MIC, broth microdilution. In kind it is cell-based. Conditions: Staphylococcus aureus, ATCC29213, 24 h, 24-hour incubation, MHB; read-out: MIC90 S. aureus ATCC 29213. Here is the method:
as §1

In the next data set the test system is E. coli ATCC 25922. The experiment in a line: MIC, broth microdilution. In kind it is cell-based, Escherichia coli. As to conditions: 24-hour incubation, MHB; for MIC90: Escherichia coli, ATCC25922, 24 h, read-out: MIC90 E. coli ATCC 25922. Here is the method:
as §1

Another data set concerns rabbit erythrocytes. The experiment in a line: Hemolysis assay. In kind it is cell-based. As to conditions: concentration causing 50% hemolysis of red blood cells; 1 hour, 37°C. Here is the method:
The hemolytic activity of antimicrobial agents was investigated as previously described ([70]). Briefly, the rabbit erythrocytes were centrifuged at 2500 rpm for 3 min before being washed twice with sterile phosphate-buffered saline (PBS) (pH 7.4). Subsequently, the erythrocytes were diluted with PBS to a final concentration of 8% (v/v). The DMSO-dissolved compounds were twofold serially diluted in PBS to achieve a final concentration with DMSO less than 0.5%. […] Sterile PBS and 0.2% Triton X-100 were used as negative and positive controls, respectively. After 1 hour of incubation at 37°C, the tested samples were centrifuged at 2500 rpm for 5 min, and aliquots of the supernatant were added to 96-well microplates. The hemoglobin release was determined by measuring the absorbance at 576 nm using a BioTek multimode reader. The percentage of hemolytic activity was calculated using the following formula: Hemolysis rate (%) = [OD576 (compound) − OD576 (PBS)]/[OD576 (Triton X-100) − OD576 (PBS)] × 100. All measurements were repeated three times with duplicates each time.

In a further data set the test system is A. baumannii ATCC 17978. The data set is described as follows: MIC, broth microdilution. The class given is cell-based. As to conditions: Acinetobacter baumannii, ATCC17978; 24-hour incubation, MHB. Here is the method:
as §1

The test system of another data set is A. baumannii R2889. The experiment in a line: MIC, broth microdilution. In kind it is cell-based. As to conditions: Acinetobacter baumannii, 24-hour incubation, MHB. Here is the method: as §1
For the next data set, the system named is K. pneumonia ATCC 10031. The data set is described as follows: MIC, broth microdilution. The class given is cell-based. As to conditions: Klebsiella pneumoniae, ATCC10031; 24-hour incubation, MHB. Here is the method: as §1
The subject of the next data set is K. pneumonia ATCC 14581. The data set is described as follows: MIC, broth microdilution. In kind it is cell-based. As to conditions: Klebsiella pneumoniae, ATCC14581; 24-hour incubation, MHB. Here is the method: as §1
The subject of a further data set is P. aeruginosa ATCC 9027. The data set is described as follows: MIC, broth microdilution. As to conditions: Pseudomonas aeruginosa, ATCC9027; 24-hour incubation, MHB. The class given is cell-based. Here is the method: as §1
In a further data set the test system is Gram-positive bacteria. The data set is described as follows: MIC, summary over Gram-positive strains. In kind it is cell-based. As to conditions: read-out: MICs against Gram-positive bacteria, three Gram-positive strains. Here is the method:
as §1

Another data set can be described thus: CCK-8 cytotoxicity assay. The class given is cell-based. Conditions: mouse, NCTC clone 929 fibroblast cells, 25 μg/ml, read-out: %Viable cells NCTC clone 929 cells. Here is the method:
Cytotoxicity of the compound tested was assessed by CCK-8 assays as previously described ([71]). […] Following a 24-hour incubation, 10 μl of CCK-8 reagent was added to each well and incubated for 1 hour. The absorbance at 450 nm was measured by a microplate reader. All measurements were repeated three times with duplicates each time.
(In general: Tetrazolium assays rely on reduction of a dye to a coloured formazan, in cell work by metabolically active cells.)

SMILES strings stand for the structures. Values after ≈ are worked out from the molar mass of the structure shown.

Regarding `CC(C)=CCOc1cc(OCCCCN)cc2oc3cc(OCCCCN)ccc3c(=O)c12` [XT33], the MIC90 (commonly an inhibitory concentration at the 90% level, which refers to growth in some studies and to a panel of isolates in others) is 3.12 µg/mL (≈ 6.87 µM) with MRSA N315, 3.12 µg/mL (≈ 6.87 µM) with MRSA NCTC 10442, 3.12 µg/mL (≈ 6.87 µM) in the data set on S. aureus ATCC 29213 and 12.5 µg/mL (≈ 27.5 µM) in the data set with E. coli ATCC 25922. Besides, the HC50 (usually the concentration giving 50% haemolysis) in the data set with rabbit erythrocytes was greater than 200 µg/mL.

Regarding `CNCCCCCCOc1ccc2c(=O)c3c(OCC=C(C)C)cc(OCCCCCCNC)cc3oc2c1` [XT34], the MIC90 in the data set with MRSA N315 stood at 1.56 µg/mL (≈ 2.9 µM); in the data set on MRSA NCTC 10442, 1.56 µg/mL (≈ 2.9 µM); in the data set with S. aureus ATCC 29213, 1.56 µg/mL (≈ 2.9 µM); in the data set with E. coli ATCC 25922, 12.5 µg/mL (≈ 23.2 µM). Moreover, the HC50 in the data set with rabbit erythrocytes is greater than 200 µg/mL.

For `CCN(CC)CCCCCCOc1ccc2c(=O)c3c(OCC=C(C)C)cc(OCCCCCCN(CC)CC)cc3oc2c1` [XT35], the MIC90 was determined as 3.12 µg/mL (≈ 5.02 µM) in the data set with MRSA N315, 3.12 µg/mL (≈ 5.02 µM) in the data set with MRSA NCTC 10442, 1.56 µg/mL (≈ 2.5 µM) in the data set on S. aureus ATCC 29213 and 50 µg/mL (≈ 80.3 µM) with E. coli ATCC 25922. The compound also yielded an HC50 with rabbit erythrocytes greater than 200 µg/mL.

As for `CNCCCCCCCCOc1ccc2c(=O)c3c(OCC=C(C)C)cc(OCCCCCCCCNC)cc3oc2c1` [XT37], the MIC90 in the data set with MRSA N315 was determined as 0.39 µg/mL (≈ 0.656 µM); with MRSA NCTC 10442, 0.39 µg/mL (≈ 0.656 µM); with S. aureus ATCC 29213, 0.78 µg/mL (≈ 1.31 µM); with E. coli ATCC 25922, 6.25 µg/mL (≈ 10.5 µM). Moreover, the HC50 in the data set on rabbit erythrocytes was greater than 200 µg/mL.

For the compound `CCN(CC)CCCCCCCCOc1ccc2c(=O)c3c(OCC=C(C)C)cc(OCCCCCCCCN(CC)CC)cc3oc2c1` [XT38], the MIC90 in the data set with MRSA N315 was 0.78 µg/mL (≈ 1.15 µM); with MRSA NCTC 10442, 1.56 µg/mL (≈ 2.3 µM); with S. aureus ATCC 29213 it was 0.39 µg/mL (≈ 0.574 µM); in the data set on E. coli ATCC 25922 it was greater than 50 µg/mL. In the data set with rabbit erythrocytes, this compound came in with an HC50 greater than 200 µg/mL.

Turning to `CNCCCCCCCCCCCCOc1ccc2c(=O)c3c(OCC=C(C)C)cc(OCCCCCCCCCCCCNC)cc3oc2c1` [XT40], the MIC90 was 12.5 µg/mL (≈ 17.7 µM) in the data set on MRSA N315, 6.25 µg/mL (≈ 8.84 µM) with MRSA NCTC 10442, 25 µg/mL (≈ 35.4 µM) in the data set with S. aureus ATCC 29213 and greater than 100 µg/mL with E. coli ATCC 25922. Also, in the data set with E. coli ATCC 25922, the “MIC90 E. coli ATCC 25922” value was greater than 100 µg/mL. Moreover, the HC50 in the data set on rabbit erythrocytes was greater than 200 µg/mL.

As to `CCN(CC)CCCCCCCCCCCCOc1ccc2c(=O)c3c(OCC=C(C)C)cc(OCCCCCCCCCCCCN(CC)CC)cc3oc2c1` [XT41], the figures for the MIC90 in the data set on MRSA N315, in the data set on MRSA NCTC 10442 and in the data set with E. coli ATCC 25922 were 3.12 µg/mL (≈ 3.95 µM), 3.12 µg/mL (≈ 3.95 µM) and greater than 100 µg/mL, respectively. Moreover, the “MIC90 E. coli ATCC 25922” value with E. coli ATCC 25922 is greater than 100 µg/mL. Also, the HC50 in the data set on rabbit erythrocytes was greater than 200 µg/mL.

In the case of `CC(C)=CCOc1cc(OCCNC(=N)N)cc2oc3cc(OCCNC(=N)N)ccc3c(=O)c12` [XT42], the MIC90 with A. baumannii ATCC 17978 is greater than 50 µg/mL; in the data set on A. baumannii R2889 it was greater than 50 µg/mL; with K. pneumonia ATCC 10031, 50 µg/mL (≈ 104 µM); against K. pneumonia ATCC 14581, 50 µg/mL (≈ 104 µM); in the data set on MRSA N315 it was 1.56 µg/mL (≈ 3.23 µM); in the data set on MRSA NCTC 10442 it was 1.56 µg/mL (≈ 3.23 µM). The MIC90 came out at 6.25 µg/mL (≈ 13 µM) in the data set with P. aeruginosa ATCC 9027 and 1.56 µg/mL (≈ 3.23 µM) with S. aureus ATCC 29213. The compound further yielded an HC50 in the data set with rabbit erythrocytes greater than 200 µg/mL. In addition, the MIC in the data set on Gram-positive bacteria is 0.098 to 1.56 µg/mL (≈ 0.203 to 3.23 µM).

Consider `CC(C)=CCOc1cc(OCCCCNC(=N)N)cc2oc3cc(OCCCCNC(=N)N)ccc3c(=O)c12` [XT43], for which the MIC90 in the data set on A. baumannii ATCC 17978 was 12.5 µg/mL (≈ 23.2 µM); against A. baumannii R2889 it was 25 µg/mL (≈ 46.4 µM); in the data set on K. pneumonia ATCC 10031, 6.25 µg/mL (≈ 11.6 µM); against K. pneumonia ATCC 14581, 12.5 µg/mL (≈ 23.2 µM); in the data set on MRSA N315, 0.195 µg/mL (≈ 0.362 µM); in the data set on MRSA NCTC 10442 it was 0.195 µg/mL (≈ 0.362 µM). Further, the MIC90 in the data set with P. aeruginosa ATCC 9027 is 12.5 µg/mL (≈ 23.2 µM); in the data set with S. aureus ATCC 29213 it was 0.195 µg/mL (≈ 0.362 µM); in the data set on E. coli ATCC 25922, 1.56 to 12.5 µg/mL (≈ 2.9 to 23.2 µM). Besides, the “MIC90 E. coli ATCC 25922” value in the data set with E. coli ATCC 25922 was found to be 1.56 µg/mL (≈ 2.9 µM). The HC50 in the data set on rabbit erythrocytes is greater than 200 µg/mL. In addition, in the data set with Gram-positive bacteria, the MIC is 0.098 to 1.56 µg/mL (≈ 0.182 to 2.9 µM). Also, in the data set “CCK-8 cytotoxicity assay”, the viability at 24 h, 25 μg/ml is 40.3 ± 1.33%.

Regarding `CC(C)=CCOc1cc(OCCCCCCCCNC(=N)N)cc2oc3cc(OCCCCCCCCNC(=N)N)ccc3c(=O)c12` [XT45], the MIC90 with A. baumannii ATCC 17978 worked out at 50 µg/mL (≈ 76.8 µM); in the data set with A. baumannii R2889, 50 µg/mL (≈ 76.8 µM); in the data set on K. pneumonia ATCC 10031, 12.5 µg/mL (≈ 19.2 µM); against K. pneumonia ATCC 14581, 25 µg/mL (≈ 38.4 µM); in the data set with MRSA N315, 0.195 µg/mL (≈ 0.3 µM); in the data set on MRSA NCTC 10442, 0.39 µg/mL (≈ 0.599 µM). In addition, the MIC90 in the data set on P. aeruginosa ATCC 9027 is greater than 50 µg/mL; in the data set with S. aureus ATCC 29213, 0.39 µg/mL (≈ 0.599 µM). The same compound returned an HC50 in the data set with rabbit erythrocytes greater than 200 µg/mL. In the data set with Gram-positive bacteria, the MIC is 0.098 to 1.56 µg/mL (≈ 0.151 to 2.4 µM).
